Assays:
Type in all cases: in vivo
Settings in all cases: 250 g/ha, evaluated after 13 days
[1] = test system: Lolium perenne (LOLPE); assay: Post-emergence biological efficacy, LOLPE
Experimental: (§1) Seeds of weeds and/or crops were sown in standard soil in pots (Amaranthus palmeri (AMAPA), Chenopodium album (CHEAL), Euphorbia heterophylla (EPHHL), Ipomoea hederacea (IPOHE), Eleusine indica (ELEIN), Lolium perenne (LOLPE), Digitaria sanguinalis (DIGSA), Setaria faberi (SETFA), Echinochloa crus-galli (ECHCG)). After cultivation for 14 days under controlled conditions in a glasshouse (at 24/19° C., day/night; 16 hours light), the plants were sprayed with an aqueous spray solution derived from the formulation of the technical active ingredient in a small amount of acetone and a special solvent and emulsifier mixture referred to as IF50 (11.12% Emulsogen EL360 TM+44.44% N-methylpyrrolidone+44.44% Dowanol DPM glycol ether), to create a 50 g/l solution which was then diluted using 0.2% Genapol XO80 as diluent to give the desired final dose of test compound.
(§2) The test plants were then grown under controlled conditions in the glasshouse (at 24/18° C., day/night; 15 hours light; 50% humidity) and watered twice daily. After 13 days the test was evaluated (100=total damage to plant; 0=no damage to plant).

[2] = test system: Setaria faberi (SETFA); assay: Post-emergence biological efficacy, SETFA
Experimental: as §1, §2

[3] = test system: Amaranthus palmeri (AMAPA); assay: Pre-emergence biological efficacy, AMAPA
Experimental: as §1, with “Lolium perenne (LOLPE),” for “Chenopodium album (CHEAL),”, “(IPOHE),” for “(IPOHE), Eleusine indica (ELEIN), Lolium perenne (LOLPE), Digitaria sanguinalis (DIGSA),”, “one day” for “14 days”
as §2

[4] = test system: Echinochloa crus-galli (ECHCG); assay: Pre-emergence biological efficacy, ECHCG
Experimental: as §1, with “Lolium perenne (LOLPE),” for “Chenopodium album (CHEAL),”, “(IPOHE),” for “(IPOHE), Eleusine indica (ELEIN), Lolium perenne (LOLPE), Digitaria sanguinalis (DIGSA),”, “one day” for “14 days”
as §2

[5] = test system: Euphorbia heterophylla (EPHHL); assay: Pre-emergence biological efficacy, EPHHL
Experimental: as §1, with “Lolium perenne (LOLPE),” for “Chenopodium album (CHEAL),”, “(IPOHE),” for “(IPOHE), Eleusine indica (ELEIN), Lolium perenne (LOLPE), Digitaria sanguinalis (DIGSA),”, “one day” for “14 days”
as §2

[6] = test system: Eleusine indica (ELEIN); assay: Post-emergence biological efficacy, ELEIN
Experimental: as §1, §2

[7] = test system: Setaria faberi (SETFA); assay: Pre-emergence biological efficacy, SETFA
Experimental: as §1, with “Lolium perenne (LOLPE),” for “Chenopodium album (CHEAL),”, “(IPOHE),” for “(IPOHE), Eleusine indica (ELEIN), Lolium perenne (LOLPE), Digitaria sanguinalis (DIGSA),”, “one day” for “14 days”
as §2

[8] = test system: Ipomoea hederacea (IPOHE); assay: Post-emergence biological efficacy, IPOHE
Experimental: as §1, §2

[9] = test system: Chenopodium album (CHEAL); assay: Post-emergence biological efficacy, CHEAL
Experimental: as §1, §2

[10] = test system: Lolium perenne (LOLPE); assay: Pre-emergence biological efficacy, LOLPE
Experimental: as §1, with “Lolium perenne (LOLPE),” for “Chenopodium album (CHEAL),”, “(IPOHE),” for “(IPOHE), Eleusine indica (ELEIN), Lolium perenne (LOLPE), Digitaria sanguinalis (DIGSA),”, “one day” for “14 days”
as §2

[11] = test system: Euphorbia heterophylla (EPHHL); assay: Post-emergence biological efficacy, EPHHL
Experimental: as §1, §2

[12] = test system: Echinochloa crus-galli (ECHCG); assay: Post-emergence biological efficacy, ECHCG
Experimental: as §1, §2

[13] = test system: Digitaria sanguinalis (DIGSA); assay: Post-emergence biological efficacy, DIGSA
Experimental: as §1, §2

[14] = test system: Amaranthus palmeri (AMAPA); assay: Post-emergence biological efficacy, AMAPA
Experimental: as §1, §2

[15] = test system: Ipomoea hederacea (IPOHE); assay: Pre-emergence biological efficacy, IPOHE
Experimental: as §1, with “Lolium perenne (LOLPE),” for “Chenopodium album (CHEAL),”, “(IPOHE),” for “(IPOHE), Eleusine indica (ELEIN), Lolium perenne (LOLPE), Digitaria sanguinalis (DIGSA),”, “one day” for “14 days”
as §2

Compound: COC(=O)CCOC(=O)C(C)Sc1cc(-n2c(=O)n(C)c(=S)n(C)c2=O)c(F)cc1Cl (stereo not drawn) [Compound 9-245, (3-methoxy-3-oxo-propyl) 2-[2-chloro-5-(3,5-dimethyl-2,6-dioxo-4-thioxo-1,3,5-triazinan-1-yl)-4-fluoro-phenyl]sulfanylpropanoate]
- damage to plant (100=total damage; 0=no damage), LOLPE [1]: 100
- damage to plant (100=total damage; 0=no damage), SETFA [2]: 40
- damage to plant (100=total damage; 0=no damage), AMAPA [3]: 100
- damage to plant (100=total damage; 0=no damage), ECHCG [4]: 80
- damage to plant (100=total damage; 0=no damage), EPHHL [5]: 100
- damage to plant (100=total damage; 0=no damage), ELEIN [6]: 80
- damage to plant (100=total damage; 0=no damage), SETFA [7]: 100
- damage to plant (100=total damage; 0=no damage), IPOHE [8]: 100
- damage to plant (100=total damage; 0=no damage), CHEAL [9]: 100
- damage to plant (100=total damage; 0=no damage), LOLPE [10]: 80
- damage to plant (100=total damage; 0=no damage), EPHHL [11]: 90
- damage to plant (100=total damage; 0=no damage), ECHCG [12]: 70
- damage to plant (100=total damage; 0=no damage), DIGSA [13]: 30
- damage to plant (100=total damage; 0=no damage), AMAPA [14]: 100
- damage to plant (100=total damage; 0=no damage), IPOHE [15]: 90

Compound: COC(=O)CCNC(=O)C(C)Sc1cc(-n2c(=O)n(C)c(=S)n(C)c2=O)c(F)cc1Cl (stereo not drawn) [Compound 9-272, methyl 3-[2-[2-chloro-5-(3,5-dimethyl-2,6-dioxo-4-thioxo-1,3,5-triazinan-1-yl)-4-fluoro-phenyl]sulfanylpropanoylamino]propanoate]
- damage to plant (100=total damage; 0=no damage), LOLPE [1]: 100
- damage to plant (100=total damage; 0=no damage), SETFA [2]: 90
- damage to plant (100=total damage; 0=no damage), AMAPA [3]: 100
- damage to plant (100=total damage; 0=no damage), ECHCG [4]: 80
- damage to plant (100=total damage; 0=no damage), EPHHL [5]: 100
- damage to plant (100=total damage; 0=no damage), ELEIN [6]: 80
- damage to plant (100=total damage; 0=no damage), SETFA [7]: 100
- damage to plant (100=total damage; 0=no damage), IPOHE [8]: 100
- damage to plant (100=total damage; 0=no damage), CHEAL [9]: 90
- damage to plant (100=total damage; 0=no damage), LOLPE [10]: 90
- damage to plant (100=total damage; 0=no damage), EPHHL [11]: 90
- damage to plant (100=total damage; 0=no damage), ECHCG [12]: 40
- damage to plant (100=total damage; 0=no damage), DIGSA [13]: 70
- damage to plant (100=total damage; 0=no damage), AMAPA [14]: 80
- damage to plant (100=total damage; 0=no damage), IPOHE [15]: 100
